Consider 6 molecules from patent US9463214B2, “Antibiotic peptide derived from helicobacter pylori ribosomal protein L1 and uses thereof” (INDUSTRY-ACADEMIC COOPERATION FOUNDATION, CHOSUN UNIVERSITY, priority 2013, dated 2016).

Data set [1] relates to E. coli CCARM 1238. Kind of data set: microbe, parasite or virus in culture. The format is cell-based, Escherichia coli. To be noted: E. coli CCARM 1238, antibiotic-resistant. An excerpt:
(§1) To investigate the antibacterial activity of the HPA3P2 peptide prepared by the method of Example 1, the inventors first measured the minimal inhibitory concentration (MIC) that is the minimum concentration of the peptide for the strain to remain as not-decomposed.
(§2) Particularly, to measure the antibacterial activity, the standard strains were obtained. For example, Gram-negative bacteria such as E. coli (KCTC 1682) and Pseudomonas aeruginosa (KCTC 1637), and Gram-positive bacteria such as Staphylococcus aureus (KCTC […]) and Bacillus subtilis (KCTC 1918) were provided from Gene Bank, Korea Research Institute of Bioscience & Biotechnology. In addition, a variety of the antibiotic-resistant strains such as Staphylococcus aureus (CCARM 3090, 3018, 3114, 3126) and E. coli (CCARM 1229, 1238) were distributed from the culture collection at Ewha Womans University. And Pseudomonas aeruginosa (1034, 3904, 4007, 4891) were obtained from the otitis media patients at Chonnam National University Hospital. Each strain was cultured in LB medium (1% bacto-trypton, 0.5% bacto-yeast extract, 1% NaCl; Sigma, USA) until the strain grew to mid-log phase. The strain was diluted with 1% bacto-peptone medium (Difco, USA) at the density of 5×10^5 cells/100 μl, which was then inoculated in micro-titrate plate (Nunc, USA). The peptide synthesized in Example 1 and the peptides in Table 1 were added to the plate (1/2 dilution from 96 well), followed by culture at 37° C. for 6 hours. OD620 was measured by using micro-titrate plate reader (Merck Elisa reader, Germany) to determine the MIC value of each strain.

Data set [2] deals with E-coli CCARM 1229. In words: microbe, parasite or virus in culture. The format is cell-based, Escherichia coli. To be noted: E-coli CCARM 1229, antibiotic-resistant.
Description: as §1, §2

Data set [3] relates to human keratinocyte HaCaT cell line. Kind of data set: Cytotoxicity in normal cell line (MTT). In kind it is cell-based. To be noted: HaCaT cells, 24 hours. On the procedure: (§3) To investigate whether or not the peptides prepared in Example 1 had cytotoxicity in normal cell line, the inventors investigated cytotoxicity in the human keratinocyte HaCaT cell line (Dr. N E. Fusenig, Heidelberg, Germany).
(§4) Particularly, human keratinocyte HaCaT cells were cultured in DMEM (Dulbecco's Modified Eagle's Medium) supplemented with 10% FBS (Fetal Bovine Serum), which were then distributed in a 96-well plate at the density of 2×10^4 cells/well, followed by further culture for 24 hours. The peptides prepared in Example 1 were treated at different concentrations, followed by reaction in a 5% CO2 incubator for 24 hours. Upon completion of the culture, 20 μl of phosphate buffered saline (PBS) wherein MTT (Thiazolyl Blue Tetrazolium Bromide) was dissolved at the concentration of 5 mg/ml was added to each well, followed by culture for 4 hours. The supernatant was discarded. Then, the generated MTT crystal was dissolved in 200 μl of DMSO. OD560 was measured.

Data set [4] can be described thus: Cytotoxicity in normal cell line (MTT). To be noted: human, HaCaT cells (human keratinocyte cell line), read-out: EC50 (50% cytotoxicity inhibition concentration). The format is cell-based, human. The procedure: as §3, §4
In data set [5] the test system is Bacillus subtilis (KCTC 1918). In kind it is cell-based. To be noted: 37° C., 6 hours, OD620.
Description: as §1, §2

Data set [6] concerns Staphylococcus aureus (KCTC 1637). In kind it is cell-based. To be noted: 37° C., 6 hours, OD620.
Description: as §1, §2

For data set [7], the system named is Pseudomonas aeruginosa (KCTC 1637). In kind it is cell-based. To be noted: 37° C., 6 hours, OD620.
Description: as §1, §2

In data set [8] the test system is E. coli (KCTC 1682). In kind it is cell-based. To be noted: Escherichia coli KCTC 1682; 37° C., 6 hours, OD620.
Description: as §1, §2

Data set [9] deals with P. aeruginosa 3904. Kind of data set: microbe, parasite or virus in culture. The format is cell-based, Pseudomonas aeruginosa. To be noted: P. aeruginosa 3904, antibiotic-resistant, from otitis media patients.
Description: as §1, §2

Data set [10] deals with P. aeruginosa 1034. In words: microbe, parasite or virus in culture. To be noted: P. aeruginosa 1034, antibiotic-resistant, from otitis media patients. The format is cell-based, Pseudomonas aeruginosa.
Description: as §1, §2

The subject of data set [11] is P. aeruginosa 4891. Kind of data set: microbe, parasite or virus in culture. In kind it is cell-based, Pseudomonas aeruginosa. To be noted: P. aeruginosa 4891, antibiotic-resistant, from otitis media patients.
Description: as §1, §2

In data set [12] the test system is P. aeruginosa 4007. Kind of data set: microbe, parasite or virus in culture. In kind it is cell-based, Pseudomonas aeruginosa. To be noted: P. aeruginosa 4007, antibiotic-resistant, from otitis media patients.
Description: as §1, §2

Data set [13] concerns human erythrocytes. In words: Hemolytic activity. The format is cell-based. To be noted: for HC10 / HC50: human erythrocytes 8% in PBS, 37° C., 1 hour; for HC10: first value of HC10/HC50 cell; for HC50: second value of HC10/HC50 cell; for hemolytic activity: human erythrocytes, up to 800 μM peptide. The procedure: To investigate whether or not the peptide HPA3P2 that has the folding structure as prepared in Example 1 had cytotoxicity, the hemolytic activity of the peptide having the folding structure was measured.
Particularly, human erythrocytes were diluted in PBS (pH 7.0) at the concentration of 8%, to which the peptides represented by SEQ. ID. […] Then, centrifugation was performed at 1,000 g. Hemoglobin included in the supernatant was measured by measuring OD414. To compare and measure the level of cell destruction, 1% triton X-100 (Sigma, USA) was added to the human erythrocytes, and then OD of the supernatant was measured. The cell destruction capacity of the said 1% triton X-100 was considered as 100%, based on which the erythrocyte destruction capacity of each peptide including the peptide of the invention and the peptides listed in Table 1 was calculated by the below mathematical formula 1. % hemolysis=(ODA−ODB/ODC−ODB)×100 [Mathematical Formula 1] In the above mathematical formula 1, ODA is the OD of the peptide solution measured at 414 nm, and ODB is the OD of PBS measured at 414 nm, and ODC is the OD of 1% triton X-100 measured at 414 nm.

Data set [14] relates to S. aureus CCARM 3114. Kind of data set: microbe, parasite or virus in culture. In kind it is cell-based, Staphylococcus aureus. To be noted: S. aureus CCARM 3114, antibiotic-resistant.
Description: as §1, §2

Data set [15] concerns S. aureus CCARM 3018. In words: microbe, parasite or virus in culture. The format is cell-based, Staphylococcus aureus. To be noted: S. aureus CCARM 3018, antibiotic-resistant.
Description: as §1, §2

Data set [16] has as its system S. aureus CCARM 3090. Kind of data set: microbe, parasite or virus in culture. In kind it is cell-based, Staphylococcus aureus. To be noted: S. aureus CCARM 3090, antibiotic-resistant.
Description: as §1, §2

The subject of data set [17] is S. aureus CCARM 3126. In words: microbe, parasite or virus in culture. The format is cell-based, Staphylococcus aureus. To be noted: S. aureus CCARM 3126, antibiotic-resistant.
Description: as §1, §2

Data set [18] has as its system E. coli cells. In words: SYTOX-Green fluorescence intensity in E. coli. To be noted: E. coli 2×10^7 cells/ml, 1 μM SYTOX-Green, over time and peptide concentration. In kind it is cell-based. The procedure:
The SYTOX-Green fluorescence and luminous intensity of the peptide prepared in Example 1 were measured over the time.
Particularly, E. coli cells were cultured in LB medium at 37° C. The cells were diluted in 10 mM sodium phosphate buffer at the density of 2×10^7 cells/ml. 1 μM of SYTOX-Green was treated to the cells, followed by reaction in a dark incubator for 15˜20 minutes. The comparative peptides (HPA3P(A) and Buporin-2(C)), and the experimental peptide HPA3P2(B) were treated at the minimum inhibition concentration. The increasing fluorescence intensity emitted from SYTOX-Green was measured (excitation wavelength: 484 nm, emission wavelength: 520 nm).

Values joined by “and” are separate entries in the source; they are usually repeats but may differ in a detail not shown here. Identical values can stand only once. Like-named read-outs stand apart in the source and are kept apart here. Ends that are not written are not given here.

Regarding `CC1(C)S[C@@H]2[C@H](NC(=O)[C@H](N)c3ccccc3)C(=O)N2[C@H]1C(=O)O` [Ampicillin], the MIC was over 800 µM in data set [1] (Escherichia coli, CCARM1238, read-out: MIC) and over 800 µM in [2] (Escherichia coli, CCARM1229, read-out: MIC).
In the case of “AKKVFKRLPKLFSKIWNWK-NH2 [HPA3P, AKKVFKRLPKLFSKIWNWK-NH2]”, the “EC10 (10% cytotoxicity inhibition concentration)” value in data set [3] was 151.1 µM and 151.5 µM. The EC50 at 24 h in data set [4] is 381 µM. Moreover, the “MIC Bs” value in [5] stood at 2 µM. For the same molecule, the “MIC Sa” value in [6] amounted to 16 µM. Further, the “MIC Pa” value in data set [7] came out at 8 µM. Besides, the “MIC Ec” value in data set [8] was found to be 1 µM. Moreover, the MIC in data set [9] is 1 µM; in data set [10] it was 1 µM; in [11], 1 µM; in [12], 1 µM; in data set [1], 0.5 to 1 µM; in data set [2] it was 0.5 to 1 µM. For the same molecule, the MIC in data set [14], in [15], in data set [16] and in data set [17] was 1 µM in each case. Moreover, in data set [13], the HC10 is on record as >800/>800 μM. In addition, the HC50 in [13] is >800/>800 μM. Besides, the hemolytic activity entry in [13] was “not observed”.
For the molecule `CCN1CCN(C(=O)N[C@@H](C(=O)N[C@@H]2C(=O)N3[C@@H]2SC(C)(C)[C@@H]3C(=O)O)c2ccccc2)C(=O)C1=O` [Piperacillin], the MIC in data set [9] (Pseudomonas aeruginosa), in data set [10] (Pseudomonas aeruginosa), in data set [11] (Pseudomonas aeruginosa) and in data set [12] (Pseudomonas aeruginosa) was over 400 µM each time.
With buforin-2, the “change of SYTOX-Green fluorescence intensity” value in data set [18] is given as “the fluorescence intensity is changed”.
Consider `CC[C@H]1OC(=O)[C@H](C)[C@@H](O[C@H]2C[C@@](C)(OC)[C@@H](O)[C@H](C)O2)[C@H](C)[C@@H](O[C@@H]2O[C@H](C)C[C@H](N(C)C)[C@H]2O)[C@](C)(O)C[C@@H](C)C(=O)[C@H](C)[C@@H](O)[C@]1(C)O` [Erythromycin], for which the MIC is over 800 µM in [14] (Staphylococcus aureus, CCARM3114); over 800 µM in [15] (Staphylococcus aureus, CCARM3018); over 800 µM in data set [16] (Staphylococcus aureus, CCARM3090); over 800 µM in data set [17] (Staphylococcus aureus, CCARM3126).
Consider “AKKVFKRLPKLPSKIWNWK-NH2 [HPA3P2, AKKVFKRLPKLPSKIWNWK-NH2]”, for which the “EC10 (10% cytotoxicity inhibition concentration)” value in data set [3] was 180.5 µM. Also, the “MIC Bs” value in data set [5] was over 64 µM. Moreover, in data set [6], the “MIC Sa” value was over 64 µM. The “MIC Pa” value in data set [7] came to 16 µM. In addition, the “MIC Ec” value in [8] amounted to 16 µM. For the same molecule, the MIC in [9] is 1 µM; in data set [10], 1 µM; in [11], 1 µM; in [12], 1 µM; in data set [1] it was 0.5 to 1 µM; in data set [2], 0.5 to 1 µM. Besides, the MIC in [14], in data set [15], in [16] and in data set [17] was 1 µM each time. Further, in [13], the HC10 was >800/>800 μM. For the same molecule, in data set [13], the HC50 is recorded as >800/>800 μM. Moreover, the hemolytic activity result in data set [13] is “not observed”.
